According to patent US7081460B2, “Quinazoline and quinazoline-like compounds for the treatment of integrin-mediated disorders” (Ortho-McNeil Pharmaceutical, Inc., priority 2001, dated 2006):
pIC50: −log10 of the molar value.

Experiments:
GPIIb/IIIa = GPIIb/IIIa (Homo sapiens, UniProt P05106+P08514); experiment: In vitro solid phase purified glycoprotein IIb/IIIa binding assay (biotinylated fibrinogen); settings: RGD-affinity purified GPIIb/IIIa, biotinylated fibrinogen; read-out: GPIIb/IIIa Binding IC50
Experimental: (§1) In vitro Solid Phase Purified αvβ3 Binding Assay The vitronectin/αvβ3 binding assay methods were derived from Mehta et al. (Biochem J. 1998, 330, 861). Human αvβ3 (Chemicon International Inc., Temecula, Calif.), at a concentration of 1 μg/ml dissolved in Tris buffer (20 mM Tris, 1 mM CaCl2, 1 mM MgCl2, 10 μM MnCl2, 150 mM NaCl), was immobilized on Immulon 96 well plates (Dynex Technologies, Chantilly, Va.) overnight at 4° C. Plates were washed and treated with blocking buffer (3% BSA in Tris buffer) for 2 h at 37 C. Plates were then rinsed 2 times in Tris buffer containing 0.3% BSA and 0.2% Tween20 (polyoxyethylenesorbitan monolaurate). Five minutes prior to the addition of 5 nM vitronectin (Sigma, St. Louis, Mo.), compounds of the invention were added to wells in duplicate. Each plate included c-RGDfV as an internal control. Following a 3 hour incubation at 37° C., plates were washed 5 times in assay buffer. An anti-human vitronectin IgG rabbit polyclonal antibody (Calbiochem, San Diego, Calif.) was added (1:2000) and plates were incubated for 1 hour at room temperature. VectaStain ABC peroxidase kit reagents (Vector Laboratories, Burlingame, Calif.) employing a biotin labeled anti-rabbit IgG, were utilized for detection of bound antibody. Plates were read at 490 nm on a Molecular Devices (Sunnyvale, Calif.) microplate reader. […] The plate was covered and incubated overnight at 4° C. The GPIIb/IIIa solution was discarded and 150 μl of 5% BSA was added and incubated at RT for 1–3 h. The plate was washed extensively with modified Tyrodes buffer. Biotinylated fibrinogen (25 μl/well) at 2× final concentration was added to the wells that contain the test compounds (25 μl/well). The plate was covered and incubated at RT for 2–4 h. Twenty minutes prior to incubation completion, one drop of Reagent A (VectaStain ABC Horse Radish Peroxidase kit, Vector Laboratories, Inc.) and one drop Reagent B were added with mixing to 5 mL modified Tyrodes buffer mix and let stand. The ligand solution was discarded and the plate washed (5×200 μl/well) with modified Tyrodes buffer. Vecta Stain HRP-Biotin-Avidin reagent (50 μl/well, as prepared above) was added and incubated at RT for 15 min. The Vecta Stain solution was discarded and the wells washed (5×200 μl/well) with modified Tyrodes buffer. Developing buffer (10 mL of 50 mM citrate/phosphate buffer @ pH 5.3, 6 mg o-phenylenediamine, 6 μl 30% H2O2; 50 μl/well) was added and incubated at rt for 3–5 min, and then 2 N H2SO4 (50 μl/well) was added. The absorbance was read at 490 nm.

Human αvβ3 = molecular target: T1, Human αvβ3 (Homo sapiens, UniProt P05106+P06756); experiment: In vitro solid phase purified αvβ3 binding assay (vitronectin/αvβ3); settings: isolated human αvβ3, 5 nM vitronectin; read-out: αvβ3 Binding IC50
T1 construct: purchased Chemicon International Inc., Temecula, Calif
Experimental: as §1

Chain of GPIIb/IIIa (P08514 32-887 limits assumed): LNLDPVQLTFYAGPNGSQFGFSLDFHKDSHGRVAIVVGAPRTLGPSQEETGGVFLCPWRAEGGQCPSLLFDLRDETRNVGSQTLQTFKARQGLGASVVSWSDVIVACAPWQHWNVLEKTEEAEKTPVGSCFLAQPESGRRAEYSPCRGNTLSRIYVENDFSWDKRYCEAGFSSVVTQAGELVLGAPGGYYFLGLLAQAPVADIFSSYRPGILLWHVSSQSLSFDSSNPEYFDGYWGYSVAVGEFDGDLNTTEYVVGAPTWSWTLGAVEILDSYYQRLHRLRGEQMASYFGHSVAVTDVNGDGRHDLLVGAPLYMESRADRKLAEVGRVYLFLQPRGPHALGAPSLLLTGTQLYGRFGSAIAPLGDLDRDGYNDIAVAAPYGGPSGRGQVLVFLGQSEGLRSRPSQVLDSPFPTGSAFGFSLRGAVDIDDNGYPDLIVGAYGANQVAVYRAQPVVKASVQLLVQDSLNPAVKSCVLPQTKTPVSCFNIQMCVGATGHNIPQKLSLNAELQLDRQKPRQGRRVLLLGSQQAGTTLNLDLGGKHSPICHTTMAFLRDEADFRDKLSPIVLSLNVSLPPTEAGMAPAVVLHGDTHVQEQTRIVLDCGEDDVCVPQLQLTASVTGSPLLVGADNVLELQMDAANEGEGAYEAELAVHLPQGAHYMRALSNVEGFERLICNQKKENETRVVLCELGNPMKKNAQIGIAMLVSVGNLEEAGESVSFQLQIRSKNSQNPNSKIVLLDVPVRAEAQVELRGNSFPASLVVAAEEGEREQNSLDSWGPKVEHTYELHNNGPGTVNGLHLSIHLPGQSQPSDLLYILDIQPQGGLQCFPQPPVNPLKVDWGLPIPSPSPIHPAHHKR
Chain of GPIIb/IIIa (P08514 891-1039 partner limits assumed): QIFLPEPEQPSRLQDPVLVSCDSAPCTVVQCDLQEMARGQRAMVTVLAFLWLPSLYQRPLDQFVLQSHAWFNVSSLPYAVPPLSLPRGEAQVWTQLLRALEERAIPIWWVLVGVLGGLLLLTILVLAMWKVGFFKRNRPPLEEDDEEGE
Chain of GPIIb/IIIa (P05106 27-788): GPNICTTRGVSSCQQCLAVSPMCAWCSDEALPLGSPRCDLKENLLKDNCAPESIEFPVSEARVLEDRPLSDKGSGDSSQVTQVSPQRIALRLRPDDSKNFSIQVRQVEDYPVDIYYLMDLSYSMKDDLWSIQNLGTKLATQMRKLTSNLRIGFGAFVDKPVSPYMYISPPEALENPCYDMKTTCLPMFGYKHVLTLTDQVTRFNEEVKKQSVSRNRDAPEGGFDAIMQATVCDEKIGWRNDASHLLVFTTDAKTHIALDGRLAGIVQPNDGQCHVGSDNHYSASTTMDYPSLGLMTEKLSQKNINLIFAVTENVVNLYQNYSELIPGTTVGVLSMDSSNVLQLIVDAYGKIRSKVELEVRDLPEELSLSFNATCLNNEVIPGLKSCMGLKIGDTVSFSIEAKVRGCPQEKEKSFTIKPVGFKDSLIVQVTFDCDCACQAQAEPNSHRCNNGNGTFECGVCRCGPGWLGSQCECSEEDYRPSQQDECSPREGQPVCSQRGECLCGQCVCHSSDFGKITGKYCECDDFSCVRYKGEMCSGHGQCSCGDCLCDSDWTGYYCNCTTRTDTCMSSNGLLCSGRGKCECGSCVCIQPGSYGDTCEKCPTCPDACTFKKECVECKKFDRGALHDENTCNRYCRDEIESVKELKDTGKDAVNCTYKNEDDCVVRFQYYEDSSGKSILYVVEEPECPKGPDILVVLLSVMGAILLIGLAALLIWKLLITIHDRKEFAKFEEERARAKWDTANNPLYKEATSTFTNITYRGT
T1 sequence (P06756 31-889 limits assumed): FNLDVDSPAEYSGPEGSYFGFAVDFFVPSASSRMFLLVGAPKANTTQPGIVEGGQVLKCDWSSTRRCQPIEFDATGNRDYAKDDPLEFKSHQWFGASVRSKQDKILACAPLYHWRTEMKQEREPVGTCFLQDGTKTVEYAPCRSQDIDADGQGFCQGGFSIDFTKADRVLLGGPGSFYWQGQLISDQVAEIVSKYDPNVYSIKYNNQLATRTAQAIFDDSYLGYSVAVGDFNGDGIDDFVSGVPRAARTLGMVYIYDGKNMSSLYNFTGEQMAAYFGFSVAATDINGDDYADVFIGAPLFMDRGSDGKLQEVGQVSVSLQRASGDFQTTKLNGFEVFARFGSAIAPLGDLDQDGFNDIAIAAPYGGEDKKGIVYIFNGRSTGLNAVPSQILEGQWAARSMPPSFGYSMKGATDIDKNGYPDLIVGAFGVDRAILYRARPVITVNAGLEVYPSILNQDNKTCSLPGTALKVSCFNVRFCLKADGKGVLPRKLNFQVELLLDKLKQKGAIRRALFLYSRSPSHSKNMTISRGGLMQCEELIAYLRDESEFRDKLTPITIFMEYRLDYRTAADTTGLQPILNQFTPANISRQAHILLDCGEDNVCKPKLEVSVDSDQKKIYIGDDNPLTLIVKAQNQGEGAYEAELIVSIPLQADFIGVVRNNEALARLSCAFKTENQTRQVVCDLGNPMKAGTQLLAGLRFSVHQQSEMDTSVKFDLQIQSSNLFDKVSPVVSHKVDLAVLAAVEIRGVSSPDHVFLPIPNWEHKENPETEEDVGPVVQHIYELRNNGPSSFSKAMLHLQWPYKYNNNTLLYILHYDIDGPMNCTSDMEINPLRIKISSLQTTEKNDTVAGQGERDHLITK
T1 sequence (P06756 891-1048 partner limits assumed): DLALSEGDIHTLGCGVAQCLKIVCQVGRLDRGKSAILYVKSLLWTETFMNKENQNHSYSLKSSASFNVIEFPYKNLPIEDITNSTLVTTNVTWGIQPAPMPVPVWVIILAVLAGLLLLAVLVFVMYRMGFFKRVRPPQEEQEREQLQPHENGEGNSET
T1 sequence (P05106 27-788): as the sequence (P05106 27-788) above

| pIC50 (GPIIb/IIIa) | pIC50 (Human αvβ3) | Compound |
| --- | --- | --- |
| 6.10 | 7.62 | COc1ccc(S(=O)(=O)N[C@@H](Cc2nc3ccc(/C=C/CNc4ccc(C)cn4)cc3c(=O)[nH]2)C(=O)O)cc1OC [Compound 44, α-[[(3,4-dimethoxyphenyl)sulfonyl]amino]-(αS)-3,4-dihydro-6-[(1E)-3-[(5-methyl-2-pyridinyl)amino]-1-propenyl]-4-oxo-2-quinazolinepropanoic acid] |
| 7.19 | 7.96 | COc1ccc(S(=O)(=O)N[C@@H](Cc2nc3ccc(/C=C/CNC4=NCCN4)cc3c(=O)[nH]2)C(=O)O)cc1OC [Compound 48, 6-[(1E)-3-[(4,5-dihydro-1H-imidazol-2-yl)amino]-1-propenyl]-α-[[(3,4-dimethoxyphenyl)sulfonyl]amino]-(αS)-3,4-dihydro-4-oxo-2-quinazolinepropanoic acid] |
| 5.32 | 7.77 | CCCCNC(=O)NC/C=C/c1ccc2nc(C[C@H](NS(=O)(=O)c3c(C)c(C)c(C)c(C)c3C)C(=O)O)[nH]c(=O)c2c1 [Compound 51, 6-[(1E)-3-[[(butylamino)carbonyl]amino]-1-propenyl]-(αS)-3,4-dihydro-4-oxo-α-[[(2,3,4,5,6-pentamethylphenyl)sulfonyl]amino]-2-quinazolinepropanoic acid] |
| 6.35 | < 5.30 | NC/C=C/c1ccc2nc(C[C@H](NC(=O)OCc3ccccc3)C(=O)O)[nH]c(=O)c2c1 [Compound 19, 6-[(1E)-3-amino-1-propenyl]-(αS)-3,4-dihydro-4-oxo-α-[[(phenylmethoxy)carbonyl]amino]-2-quinazolinepropanoic acid] |
| 6.25 | 7.26 | O=C(N[C@@H](Cc1nc2ccc(/C=C/CNC3=NCCN3)cc2c(=O)[nH]1)C(=O)O)OCc1ccccc1 [Compound 2, 6-[(1E)-3-[(4,5-dihydro-1H-imidazol-2-yl)amino]-1-propenyl]-(αS)-3,4-dihydro-4-oxo-α-[[(phenylmethoxy)carbonyl]amino]-2-quinazolinepropanoic Acid] |
| 6.48 | 8.15 | 6-[(1E)-3-[(4,5-dihydro-1H-imidazol-2-yl)amino]-1-propenyl]-(αS)-3,4-dihydro-4-oxo-α-[[[(E)-2-phenylethenyl]sulfonyl]amino]-2-quinazolinepropanoic Acid [Compound 7] |
| 7.22 | 8.27 | Cc1c(C)c(C)c(S(=O)(=O)N[C@@H](Cc2nc3ccc(/C=C/CCNC4=NCCN4)cc3c(=O)[nH]2)C(=O)O)c(C)c1C [Compound 42, 6-[(1E)-4-[(4,5-dihydro-1H-imidazol-2-yl)amino]-1-butenyl]-(αS)-3,4-dihydro-4-oxo-α-[[(2,3,4,5,6-pentamethylphenyl)sulfonyl]amino]-2-quinazolinepropanoic acid] |
| 5.96 | 6.82 | C=C(CNC(=O)NC(C)C)c1ccc2nc(C[C@H](NS(=O)(=O)c3c(C)c(C)c(C)c(C)c3C)C(=O)O)[nH]c(=O)c2c1 [Compound 64, (αS)-3,4-dihydro-6-[1-[[[[(1-methylethyl)amino]carbonyl]amino]methyl]ethenyl]-4-oxo-α-[[(2,3,4,5,6-pentamethylphenyl)sulfonyl]amino]-2-quinazolinepropanoic acid] |
| 5.72 | 6.13 | COc1ccc(S(=O)(=O)N[C@@H](Cc2nc3ccc(/C=C/CNc4ccc(Cl)cn4)cc3c(=O)[nH]2)C(=O)O)cc1 [Compound 40, 6-[(1E)-3-[(5-chloro-2-pyridinyl)amino]-1-propenyl]-(αS)-3,4-dihydro-α-[[(4-methoxyphenyl)sulfonyl]amino]-4-oxo-2-quinazolinepropanoic acid] |
| 6.49 | 7.85 | O=C(O)[C@H](Cc1nc2ccc(/C=C/CNC3=NCCN3)cc2c(=O)[nH]1)NS(=O)(=O)c1cccc2cccnc12 [Compound 4, 6-[(1E)-3-[(4,5-dihydro-1H-imidazol-2-yl)amino]-1-propenyl]-(αS)-3,4-dihydro-4-oxo-α-[(8-quinolinylsulfonyl)amino]-2-quinazolinepropanoic Acid] |
| 5.74 | 5.74 | Cc1c(C)c(C)c(S(=O)(=O)N[C@@H](Cc2nc3ccc(/C=C/CNc4ccc(Cl)cn4)cc3c(=O)[nH]2)C(=O)O)c(C)c1C [Compound 39, 6-[(1E)-3-[(5-chloro-2-pyridinyl)amino]-1-propenyl]-(αS)-3,4-dihydro-4-oxo-α-[[(2,3,4,5,6-pentamethylphenyl)sulfonyl]amino]-2-quinazolinepropanoic acid] |
| 5.31 | 6.21 | Cc1c(C)c(C)c(S(=O)(=O)N[C@@H](Cc2nc3ccc(/C=C/CNC(=O)NC4CCCCC4)cc3c(=O)[nH]2)C(=O)O)c(C)c1C [Compound 75, 6-[(1E)-3-[[(cyclohexylamino)carbonyl]amino]-1-propenyl]-(αS)-3,4-dihydro-4-oxo-α-[[(2,3,4,5,6-pentamethylphenyl)sulfonyl]amino]-2-quinazolinepropanoic acid] |
| 5.80 | 7.08 | O=C(O)[C@H](Cc1nc2ccc(/C=C/CNc3ccccn3)cc2c(=O)[nH]1)NS(=O)(=O)c1cccs1 [Compound 34, (αS)-3,4-dihydro-4-oxo-6-[(1E)-3-(2-pyridinylamino)-1-propenyl]-α-[(2-thienylsulfonyl)amino]-2-quinazolinepropanoic acid] |
| 6.96 | 7.62 | Cc1c(C)c(C)c(S(=O)(=O)N[C@@H](Cc2nc3ccc(/C=C/CNC4=NCCCC4)cc3c(=O)[nH]2)C(=O)O)c(C)c1C [Compound 52, (αS)-3,4-dihydro-4-oxo-α-(α^2S)-[[(2,3,4,5,6-pentamethylphenyl)sulfonyl]amino]-6-[(1E)-3-[(3,4,5,6-tetrahydro-2-pyridinyl)amino]-1-propenyl]-2-quinazolinepropanoic acid] |
| 5.60 | 7.36 | Cc1c(C)c(C)c(S(=O)(=O)N[C@@H](Cc2nc3ccc(/C=C/CNC(=O)NC(C)C)cc3c(=O)[nH]2)C(=O)O)c(C)c1C [Compound 58, (αS)-3,4-dihydro-6-[(1E)-3-[[[(1-methylethyl)amino]carbonyl]amino]-1-propenyl]-4-oxo-α-[[(2,3,4,5,6-pentamethylphenyl)sulfonyl]amino]-2-quinazolinepropanoic acid] |
| 7.11 | 8.49 | Cc1cc(C)c(S(=O)(=O)N[C@@H](Cc2nc3ccc(/C=C/CNC4=NCCN4)cc3c(=O)[nH]2)C(=O)O)c(C)c1 [Compound 3, 6-[(1E)-3-[(4,5-dihydro-1H-imidazol-2-yl)amino]-1-propenyl]-(αS)-3,4-dihydro-4-oxo-a-[[(2,4,6-trimethylphenyl)sulfonyl]amino]-2-quinazolinepropanoic Acid] |
| 5.41 | 7.23 | CNC(=O)NC/C=C/c1ccc2nc(C[C@H](NS(=O)(=O)c3c(C)c(C)c(C)c(C)c3C)C(=O)O)[nH]c(=O)c2c1 [Compound 59, (αS)-3,4-dihydro-6-[(1E)-3-[[(methylamino)carbonyl]amino]-1-propenyl]-4-oxo-α-[[(2,3,4,5,6-pentamethylphenyl)sulfonyl]amino]-2-quinazolinepropanoic acid] |
| 5.80 | < 7.30 | O=C(O)[C@H](Cc1nc2ccc(/C=C/CNC3=NCCN3)cc2c(=O)[nH]1)NS(=O)(=O)c1c(Cl)cc(Cl)cc1Cl [Compound 21, 6-[(1E)-3-[(4,5-dihydro-1H-imidazol-2-yl)amino]-1-propenyl]-(αS)-3,4-dihydro-4-oxo-α-[[(2,4,6-trichlorophenyl)sulfonyl]amino]-2-quinazolinepropanoic acid] |
| < 4.30 | 5.70 | CCCCS(=O)(=O)N[C@@H](Cc1nc2ccc(/C=C/CNC(=O)NCc3ccccc3)cc2c(=O)[nH]1)C(=O)O [Compound 73, α-[(butylsulfonyl)amino]-(αS)-3,4-dihydro-4-oxo-6-[(1E)-3-[[[(phenylmethyl)amino]carbonyl]amino]-1-propenyl]-2-quinazolinepropanoic acid] |
| 5.74 | 7.60 | Cc1c(C)c(C)c(S(=O)(=O)N[C@H](CC(=O)O)c2nc3ccc(/C=C/CNc4ccccn4)cc3c(=O)[nH]2)c(C)c1C [Compound 14, (βR)-3,4-dihydro-4-oxo-β-[[(2,3,4,5,6-pentamethylphenyl)sulfonyl]amino]-6-[(1E)-3-(2-pyridinylamino)-1-propenyl]-2-quinazolinepropanoic Acid] |
